The source made the active and inactive calls. The rule behind the calls is not given here.
Columns and labels:
Mus musculus = assay: Dopamine antagonist activity expressed as inhibition of apomorphine-induced climbing in mice, subcutaneous administration; assay type: functional
Rattus norvegicus [1] = assay: Prokinetic activity expressed as stimulation of intragastric pressure in rat at the lowest active dose in mg/kg on subcutaneous administration.; assay type: functional
[2] = Selectivity at Dopamine receptors compared to 5-HT receptors.; assay type: functional
D(2) dopamine receptor = D(2) dopamine receptor (Rattus norvegicus, UniProt P61169); assay: Compound was tested against Dopamine receptor D2 by displacement of [125I]iodosulpiride radioligand from rat D2 clones
Rattus norvegicus [3] = assay: Antagonist activity against 5-HT3 receptor was assessed from ability to inhibit the 5-HT -induced bradycardia when dose given intravenously; inactive up to 1 mg/kg; assay type: functional, organism-based; set-up: dose 1 mg/kg
[4] = Mus musculus, sc, read-out: ED50

Chain of D(2) dopamine receptor (P61169 whole entry): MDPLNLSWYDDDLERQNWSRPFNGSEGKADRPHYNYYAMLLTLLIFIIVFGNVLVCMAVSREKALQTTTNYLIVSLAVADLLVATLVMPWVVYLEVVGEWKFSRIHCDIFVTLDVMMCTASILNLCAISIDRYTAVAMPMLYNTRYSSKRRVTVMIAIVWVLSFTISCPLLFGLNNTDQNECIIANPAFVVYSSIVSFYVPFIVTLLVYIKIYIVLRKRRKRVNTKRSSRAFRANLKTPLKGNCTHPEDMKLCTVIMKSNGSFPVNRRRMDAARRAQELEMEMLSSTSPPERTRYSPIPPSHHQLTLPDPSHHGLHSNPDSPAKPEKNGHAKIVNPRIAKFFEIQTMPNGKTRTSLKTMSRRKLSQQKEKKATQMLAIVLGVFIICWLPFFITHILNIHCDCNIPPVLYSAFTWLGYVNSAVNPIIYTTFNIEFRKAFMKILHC

Row | Ratio [2] | Structure (SMILES) | Activity (Rattus norvegicus [1]) [mg/kg] | ED50 (Mus musculus) [mg/kg] | also measured
1 | 15 | COc1cc(N)c(Cl)cc1C(=O)NC1CCN2CCCC12 (centres undefined) | 0.5 | – | ED50 (Mus musculus; [4]): 7.5 mg/kg
2 | > 10 | CCCC1CCCC2CC(NC(=O)c3cc(Cl)c(N)cc3OC)CCN12 (centres undefined) | 1 | – | ED50 (Mus musculus; [4]): > 10 mg/kg
3 | > 125 | COc1cc(N)c(Cl)cc1C(=O)NC[C@H]1CCC2CCCCN2C1 (some centres undefined) | 0.2 | – | IC50 (D(2) dopamine receptor): 3.9 µM; ED50 (Mus musculus; [4]): > 25 mg/kg; Activity (Rattus norvegicus [3]): inactive
4 | – | COc1cc(N)c(Cl)cc1C(=O)NC1CCN2CCCC2(C)C1 (centres undefined) | >1 | – | ED50 (Mus musculus; [4]): > 30 mg/kg
5 | 30 | COc1cc(N)c(Cl)cc1C(=O)NC1CCN2C(C)CCC2C1 (centres undefined) | 0.5 | – | ED50 (Mus musculus; [4]): 15 mg/kg
6 | – | COc1cc(N)c(Cl)cc1C(=O)NC1CCC2CCCCN2CC1 (centres undefined) | >25 | – | ED50 (Mus musculus; [4]): > 50 mg/kg
7 | – | COc1cc(N)c(Cl)cc1C(=O)NCC1CC2CCCCN2C1 (centres undefined) | >25 | – | Activity (Rattus norvegicus [3]): inactive
8 | – | COc1cc(N)c(Cl)cc1C(=O)NCC1CCC2CCCCN2C1 (centres undefined) | 5 | – | –
9 | – | COc1cc(N)c(Cl)cc1C(=O)NCC1CCCN2CCCCC12 (single isomer, unassigned) | >25 | – | –
10 | – | COc1cc(N)c(Cl)cc1C(=O)NCC1CCC2CCCCN21 (single isomer, unassigned) [listing 1 of 2 here] | 0.2 | – | ED50 (Mus musculus; [4]): 15 mg/kg
11 | – | COc1cc(N)c(Cl)cc1C(=O)NC1CCN2CCCCC12 (single isomer, unassigned) [listing 1 of 2 here] | 0.5 | 0.2 | –
12 | 0.4 | COc1cc(N)c(Cl)cc1C(=O)NC1CCN2CCCCC12 (single isomer, unassigned) [listing 2 of 2 here] | – | – | –
13 | 75 | COc1cc(N)c(Cl)cc1C(=O)NCC1CCC2CCCCN21 (single isomer, unassigned) [listing 2 of 2 here] | – | – | –
14 | – | COc1cc(N)c(Cl)cc1C(=O)NC1CCCN2CCCCC2C1 (single isomer, unassigned; form 1) [listing 1 of 2 here] | 1 | – | ED50 (Mus musculus; [4]): > 50 mg/kg
15 | – | COc1cc(N)c(Cl)cc1C(=O)NC1CC2CCCCN2C1 (single isomer, unassigned; form 1) | >10 | >10 | –
16 | > 50 | COc1cc(N)c(Cl)cc1C(=O)NC1CCCN2CCCCC2C1 (single isomer, unassigned; form 1) [listing 2 of 2 here] | – | – | –
17 | – | COc1cc(N)c(Cl)cc1C(=O)NC1CCCN2CCCCC2C1 (single isomer, unassigned; form 2) [listing 1 of 2 here] | – | 38 | –
18 | – | COc1cc(N)c(Cl)cc1C(=O)NC1CC2CCCCN2C1 (single isomer, unassigned; form 2) | – | 0.1 | –
19 | 38 | COc1cc(N)c(Cl)cc1C(=O)NC1CCCN2CCCCC2C1 (single isomer, unassigned; form 2) [listing 2 of 2 here] | – | – | –
20 | – | COc1cc(N)c(Cl)cc1C(=O)NCC1CCC2CCCCN21 (stereo in doubt) | >1 | 20 | –
21 | – | COc1cc(N)c(Cl)cc1C(=O)NC1CCN2CCCCC12 (stereo in doubt) [listing 1 of 2 here] | 1 | 1.8 | –
22 | 50 | COc1cc(N)c(Cl)cc1C(=O)NC1CCN2C(C)CCCC2C1 (stereo in doubt) | – | – | –
23 | 1.8 | COc1cc(N)c(Cl)cc1C(=O)NC1CCN2CCCCC12 (stereo in doubt) [listing 2 of 2 here] | – | – | –
24 | – | COc1cc(N)c(Cl)cc1C(=O)NC1CCN2C(C)CCCC2C1 (stereo in doubt) [BRL-20627] | 0.5 | – | ED50 (Mus musculus; [4]): 25 mg/kg

Row | Ratio [2] | Structure (SMILES) | Activity (Rattus norvegicus [1]) [mg/kg] | ED50 (Mus musculus) [mg/kg] | also measured
25 | 50 | COc1cc(N)c(Cl)cc1C(=O)NC1CCN2C(C)CCCC2C1 (stereo in doubt; 2) | – | – | –
26 | – | COc1cc(N)c(Cl)cc1C(=O)NC1CCN2C(C)CCCC2C1 (stereo in doubt; 2) [BRL-20627] | – | 25 | –
27 | – | COc1cc(N)c(Cl)cc1C(=O)NC1CCN2CCCC2C1 (stereo in doubt; 8 (Eq)) [listing 1 of 2 here] | 5 | – | ED50 (Mus musculus; [4]): 6 mg/kg
28 | 1.2 | COc1cc(N)c(Cl)cc1C(=O)NC1CCN2CCCC2C1 (stereo in doubt; 8 (Eq)) [listing 2 of 2 here] | – | – | –
29 | – | COc1cc(N)c(Cl)cc1C(=O)NC1CCN2CCCC2C1 (stereo in doubt; 9 (Ax)) [listing 1 of 2 here] | 0.2 | 12 | –
30 | 60 | COc1cc(N)c(Cl)cc1C(=O)NC1CCN2CCCC2C1 (stereo in doubt; 9 (Ax)) [listing 2 of 2 here] | – | – | –
31 | – | COc1cc(N)c(Cl)cc1C(=O)NC1CCCN2CCCC12 (stereo in doubt; 10 (Eq)) | >5 | 3.5 | –
32 | – | COc1cc(N)c(Cl)cc1C(=O)NC1CCCN2CCCC12 (stereo in doubt; 11 (Ax)) [listing 1 of 2 here] | 0.5 | 0.1 | –
33 | 0.2 | COc1cc(N)c(Cl)cc1C(=O)NC1CCCN2CCCC12 (stereo in doubt; 11 (Ax)) [listing 2 of 2 here] | – | – | –
34 | – | COc1cc(N)c(Cl)cc1C(=O)NC1CCN2CC(C)CCC2C1 (stereo in doubt; 17) | >5 | – | ED50 (Mus musculus; [4]): > 10 mg/kg
35 | – | COc1cc(N)c(Cl)cc1C(=O)NC1CCN2CC(C)CCC2C1 (stereo in doubt; 18) | 5 | – | –
36 | – | COc1cc(N)c(Cl)cc1C(=O)NC1CCN2C(C)CCCC2C1 (stereo in doubt; 19) [BRL-20627] | >5 | – | –
37 | – | COc1cc(N)c(Cl)cc1C(=O)NC1CCN2C(CCCC2c2ccccc2)C1 (stereo in doubt; 21) | – | – | ED50 (Mus musculus; [4]): 5 mg/kg
38 | – | COc1cc(N)c(Cl)cc1C(=O)NC1CCN2C(CCCC2c2ccccc2)C1 (stereo in doubt; 22) | >5 | 5 | –
39 | – | COc1cc(N)c(Cl)cc1C(=O)NC1CC(C)N2CCCCC2C1 (stereo in doubt; 23) | >5 | – | –
40 | – | COc1cc(N)c(Cl)cc1C(=O)NC1CC(C)N2CCCCC2C1 (stereo in doubt; 25) | >1 | – | ED50 (Mus musculus; [4]): > 30 mg/kg
41 | – | COc1cc(N)c(Cl)cc1C(=O)NC1CC(C)N2CCCC2C1 (stereo in doubt; 27) [listing 1 of 2 here] | – | 10 | –
42 | 10 | COc1cc(N)c(Cl)cc1C(=O)NC1CC(C)N2CCCC2C1 (stereo in doubt; 27) [listing 2 of 2 here] | – | – | –
43 | – | COc1cc(N)c(Cl)cc1C(=O)NC1CC(C)N2CCCC2C1 (stereo in doubt; 28) [listing 1 of 2 here] | 1 | 50 | –
44 | 50 | COc1cc(N)c(Cl)cc1C(=O)NC1CC(C)N2CCCC2C1 (stereo in doubt; 28) [listing 2 of 2 here] | – | – | –
45 | – | COc1cc(N)c(Cl)cc1C(=O)NC1CC(C)N2CCCC2C1 (stereo in doubt; 29) [listing 1 of 2 here] | – | 34 | –
46 | 34 | COc1cc(N)c(Cl)cc1C(=O)NC1CC(C)N2CCCC2C1 (stereo in doubt; 29) [listing 2 of 2 here] | – | – | –
47 | – | COc1cc(N)c(Cl)cc1C(=O)NC1CC(C)N2CCCC2C1 (stereo in doubt; 30) | >1 | >50 | –
48 | 0.8 | CCN(CC)CCNC(=O)c1cc(Cl)c(N)cc1OC [METOCLOPRAMIDE] | 1 | – | ED50 (Mus musculus; [4]): 0.8 mg/kg
